Results from patent US20240122941A1, “THERAPY BASED ON SYNTHETIC LETHALITY IN SWI/SNF COMPLEX-DYSFUNCTION CANCER” (NATIONAL CANCER CENTER, priority 2020, published 2024).
Where two headings read alike, the source gives them in different places.

How the values were obtained:
[1] = test system: SMARCA2/A4 deficient cells, i.e., H23 cells, DMS114 cells, and TOV112D cells; test: Cell growth suppression experiment, SMARCA2/A4 deficient cells (summary of Example 8); format: cell-based; conditions: H23, DMS114 and TOV112D cells versus H460 cells; result in words
Procedure: Cytotoxic activity of a CBP/P300 on SMARCA2/A4 deficient cells, i.e., H23 cells (pulmonary adenocarcinoma derived), TOV112D cells (small cell ovarian cancer derived), and DMS114 cells (small cell lung cancer derived), and SMARCA2/A4 wild-type cells, i.e., H460 cells (pulmonary adenocarcinoma derived) was compared.
H23 cells, TOV112D cells, DMS114 cells, and H460 cells were cultured under 5% CO2 conditions at 37° C. in a 10% fetal bovine serum and 1% penicillin/streptomycin-containing DMEM-F12 medium.
Cells were seed on a 96-well plate at 250 to 500 cells per well. […] After completion of culture, the cell survival rate was measured using CellTiter-Glo Luminescent Cell Viability Assay (Promega, G770).

[2] = test system: JMU-RTK-2 cells (malignant rhabdoid tumor derived, SMARCB1 deficient); test: Selectivity in cell growth suppression, JMU-RTK-2 cells
Description: (§1) The cytotoxic activity of a CBP/P300 inhibitor on JMU-RTK-2 cells and JMU-RTK-2+SMARCB1 cells was compared.

[3] = test system: DMS114 cells (small cell lung cancer derived, SMARCA2/A4 deficient); test: Cell growth suppression experiment (CellTiter-Glo), DMS114 cells; format: cell-based; conditions: for IC50 / cell survival rate (%) at treatment with 10 μM, DMS114: DMS114 cells; for IC50: cultured for 6 days, CellTiter-Glo; for cell survival rate (%) at treatment with 10 μM, DMS114: 6 days; for cell growth suppression effect on DMS114 cells: result in words
[4] = test system: H23 cells (pulmonary adenocarcinoma derived, SMARCA2/A4 deficient); test: Cell growth suppression experiment (CellTiter-Glo), H23 cells; format: cell-based; conditions: for cell survival rate (%) at treatment with 10 μM, H23: 6 days; for IC50: cultured for 6 days, CellTiter-Glo;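 on all read-outs here: compounds tested as CBP/P300 agents, added one day after plating in 96-well plates with DMEM-F12 plus 10% fetal bovine serum, 0.1% DMSO final, luminescent viability read-out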
[5] = test system: G-401 cells (malignant rhabdoid tumor derived, SMARCB1 deficient); test: Cell growth suppression experiment (CellTiter-Glo), G-401 cells; conditions: for cell survival rate (%) at treatment with 10 μM, G-401: 10 μM (maximum treatment concentration), 3 days
Procedure: (§2) G-401 cells and G-402 cells were cultured under the conditions of 5% CO2 at 37° C. in a 10% fetal bovine serum and 1% penicillin/streptomycin-containing McCoy's 5A medium. CHLA-06-ATRT cells were cultured under the conditions of 5% CO2 at 37° C. in a 10% B-27 supplement, 20 ng/mL EGF, 20 ng/mL FGF, and 1% penicillin/streptomycin-containing DMEM:F12 medium.

[6] = test system: SMARCB1 deficient cells, i.e., G-401 cells, G-402 cells, and CHLA-06-ATRT cells; test: Cell growth suppression experiment, SMARCB1 deficient cells (summary of Example 1); conditions: G-401, G-402 and CHLA-06-ATRT cells versus 786-O cells; result in words
Procedure: as §2

[7] = test system: 786-O cells (renal cancer derived, SMARCB1 wild-type); test: Cell growth suppression experiment (CellTiter-Glo), 786-O cells; conditions: for IC50: read-out: IC50 786-O; for cell survival rate (%) at treatment with 10 μM, 786-O: 10 μM (maximum treatment concentration), 3 days
Procedure: as §2

[8] = test system: TOV112D cells (small cell ovarian cancer derived, SMARCA2/A4 deficient); test: Cell growth suppression experiment (CellTiter-Glo), TOV112D cells; format: cell-based; conditions: for cell survival rate (%) at treatment with 10 μM, TOV112D: 6 days; for IC50: cultured for 6 days, CellTiter-Glo;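 on all read-outs here: luminescent viability read-out of TOV112D cells grown in DMEM-F12 with 10% fetal bovine serum, compound exposure starting one day after plating, DMSO at 0.1% final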
[9] = test system: JMU-RTK-2+SMARCB1 cells (JMU-RTK-2 cells overexpressing SMARCB1); test: Selectivity in cell growth suppression, JMU-RTK-2+SMARCB1 cells
Description: as §1

[10] = test system: H460 cells (pulmonary adenocarcinoma derived, SMARCA2/A4 wild-type); test: Cell growth suppression experiment (CellTiter-Glo), H460 cells; format: cell-based; conditions: for viability at 10 µM / cell survival rate (%) at treatment with 10 μM, H460: 6 days; for viability at 10 µM: read-out: cell survival rate (%) at treatment with 10 μM, H460; for IC50: cultured for 6 days, CellTiter-Glo;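 on all read-outs here: luminescent viability read-out, compound added one day after seeding at 0.1% final DMSO, cells grown in DMEM-F12 with 10% fetal bovine serum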
[11] = 144 h, read-out: JMU-RTK-2 IC50, JMU-RTK-2 cells, cultured for 6 days, CellTiter-Glo
[12] = Homo sapiens, G-401, 72 h, read-out: IC50 G-401, G-401 cells, cultured for 3 days, CellTiter-Glo cell survival
[13] = Homo sapiens, 786-0, 72 h, read-out: cell survival rate (%) at treatment with 10 μM, 786-O
[14] = 144 h, read-out: JMU-RTK-2 + SMARCB1 IC50, JMU-RTK-2+SMARCB1 cells, cultured for 6 days, CellTiter-Glo
[15] = read-out: JMU-RTK-2 IC50, JMU-RTK-2 cells, cultured for 6 days, CellTiter-Glo
[16] = read-out: IC50 G-401, G-401 cells, cultured for 3 days, CellTiter-Glo cell survival
[17] = 786-O cells, cultured for 3 days, CellTiter-Glo cell survival
[18] = read-out: JMU-RTK-2 + SMARCB1 IC50, JMU-RTK-2+SMARCB1 cells, cultured for 6 days, CellTiter-Glo

SMILES	cell growth suppression effect on SMARCA2/A4 deficient cells [1]	IC50 [2, 11] [µM]	IC50 ([3]; Homo sapiens, DMS-114, 144 h) [µM]	cell survival rate (%) at treatment with 10 μM, H23 [4] [%]	IC50 ([4]; Homo sapiens, NCI-H23, 144 h) [µM]	IC50 [5, 12] [µM]	cell growth suppression effect on SMARCB1 deficient cells [6]	IC50 ([7]; Homo sapiens, 786-0, 72 h) [µM]	viability at 10 µM [7, 13] [%]	cell survival rate (%) at treatment with 10 μM, TOV112D [8] [%]	IC50 ([8]; Homo sapiens, TOV112D, 144 h) [µM]	IC50 [9, 14] [µM]	viability at 10 µM ([10]; Homo sapiens, NCI-H460, 144 h) [%]	IC50 ([10]; Homo sapiens, NCI-H460, 144 h) [µM]	IC50 [2, 15] [µM]	IC50 [3] [µM]	IC50 [4] [µM]	IC50 [5, 16] [µM]	IC50 [8] [µM]	IC50 [9, 18] [µM]	other results
COC(=O)N1c2ccc3c(nc(Cc4ccccc4)n3[C@H]3CCC[C@H](C(=O)O)C3)c2CC[C@@H]1C [Compound 10]	particularly selective and potent cell growth suppression effect	1.6	1.43	53	> 10	1.8	selective and potent Cell growth suppression effect	> 10	82	84	> 10	5.3	95	> 10							
CO[C@H]1CC[C@H](n2c([C@@H]3CCCC(=O)N3c3ccc(F)c(F)c3)nc3cc(-c4c(C)noc4C)ccc32)CC1 [Compound 9]	particularly selective and potent cell growth suppression effect	0.7	1.1		5.61	2.6	selective and potent Cell growth suppression effect	> 10	83	51	> 10	3.7	94	> 10							
CNC(=O)Cn1cc(-c2ccc3c(c2)C(F)CC32NC(=O)N(CC(=O)N(Cc3ccc(F)cc3)[C@@H](C)C(F)(F)F)C2=O)cn1 (single isomer, unassigned) [Compound 3]	particularly selective and potent cell growth suppression effect			49			selective and potent Cell growth suppression effect			43					2.6	3.44	> 10	4.9	> 10	26.3	cell survival rate (%) at treatment with 10 μM, 786-O ([7]; 786-O cells): 107%; IC50 [7, 17]: > 10 µM; cell survival rate (%) at treatment with 10 μM, H460 [10]: 105%; IC50 [10]: > 10 µM
CNC(=O)Cn1cc(-c2ccc3c(c2)C(F)CC32NC(=O)N(CC(=O)N(Cc3ccc(F)cc3)[C@@H](C)C(F)(F)F)C2=O)cn1 (single isomer, unassigned) [Compound 1]	particularly selective and potent cell growth suppression effect			52			selective and potent Cell growth suppression effect	> 10		44				> 10	2.5	4.83	> 10	2.7	> 10	27.3	viability at 10 µM ([7]; Homo sapiens, 786-0, 72 h, read-out: cell survival rate (%) at treatment with 10 μM, 786-O, 786-O cells, 10 μM (maximum treatment concentration), 3 days): 104%; cell survival rate (%) at treatment with 10 μM, H460 [10]: 104%
COC(=O)N1c2ccc3c(nc(Cc4ccccc4)n3[C@@H]3CCC[C@@H](C(=O)O)C3)c2CC[C@@H]1C [Compound 11]	particularly selective and potent cell growth suppression effect	2	3.73	75	> 10	> 10		> 10	93	93	> 10	5.8	99	> 10							cell survival rate (%) at treatment with 10 μM, G-401 ([5]; G-401 cells): 53%
CNC(=O)Cn1cc(-c2ccc3c(c2)C(F)CC32NC(=O)N(CC(=O)N(Cc3ccc(F)cc3)[C@@H](C)C(F)(F)F)C2=O)cn1 (single isomer, unassigned) [Compound 2]	particularly selective and potent cell growth suppression effect			99						96					4.8	> 10	> 10	> 10	> 10	20.1	cell survival rate (%) at treatment with 10 μM, DMS114 [3]: 67%; cell growth suppression effect on DMS114 cells [3]: cell growth suppression effect; cell survival rate (%) at treatment with 10 μM, G-401 ([5]; G-401 cells): 62%; cell survival rate (%) at treatment with 10 μM, 786-O ([7]; 786-O cells): 108%; IC50 [7, 17]: > 10 µM; cell survival rate (%) at treatment with 10 μM, H460 [10]: 100%; IC50 [10]: > 10 µM
CC(=O)N1CCc2c(c(Nc3ccc(-c4cnn(C)c4)cc3F)nn2[C@@H]2CCOC2)C1 [Compound 13]		2.8	> 10	92	> 10	> 10		> 10	104	121	> 10	8.1	102	> 10							cell survival rate (%) at treatment with 10 μM, DMS114 [3]: 64%; cell growth suppression effect on DMS114 cells [3]: cell growth suppression effect; cell survival rate (%) at treatment with 10 μM, G-401 ([5]; G-401 cells): 78%
